Measured values published in patent publication US10258033B2 (Eden Research PLC, priority 2005, dated 2019).

What was measured:
S. aureus = assay: MIC of terpene emulsions and fresh or freeze-dried Baker's YP / SAF Mannan encapsulated terpenes against S. aureus; assay type: cell-based; conditions: for MIC μg/ml terpene, Bakers Freeze Dried / MIC μg/ml terpene, Bakers Fresh: encapsulated in Baker's YP; for MIC μg/ml terpene, SAF Mannan Freeze Dried / MIC μg/ml terpene, SAF Mannan Fresh: encapsulated in SAF Mannan; for MIC μg/ml terpene, Emulsion: not encapsulated
Description: The results of a protocol performed to compare the MIC of fresh versus freeze dried hollow glucan particle encapsulated terpene formulations are shown below in Table 13. A simple terpene emulsion was also tested and the results are shown for comparison.

[1] = Suspension and solution of citral in water; assay type: physicochemical
Excerpt: In one embodiment the terpene component includes one or more terpenes which contain oxygen.

E. coli = conditions: cited from earlier work
H. pylori = conditions: cited from earlier work

| Compound | MIC μg/ml terpene, Bakers Freeze Dried (S. aureus) | MIC μg/ml terpene, Bakers Fresh (S. aureus) | MIC μg/ml terpene, SAF Mannan Freeze Dried (S. aureus) | MIC μg/ml terpene, SAF Mannan Fresh (S. aureus) | MIC μg/ml terpene, Emulsion (S. aureus) | solution, maximum concentration [1] | stable suspension, maximum concentration [1] | stable suspension of hollow glucan particles incorporating citral ([1]; ppt citral) | concentration in growth media that reduced the concentration of E. coli (E. coli) | concentration with bactericidal effect (E. coli) | concentration that inhibited the growth of H. pylori in vitro (H. pylori) |
| --- | --- | --- | --- | --- | --- | --- | --- | --- | --- | --- | --- |
| L-carvone | >0.04 μg/ml terpene | 0.1 μg/ml terpene | >0.02 μg/ml terpene | 0.01 μg/ml terpene | 3.75 μg/ml terpene | – | – | – | – | – | – |
| CC(C)=CCCC(C)=CC=O [Citral, 3,7-dimethyl-2,6-octadien-1-al] | 0.05 μg/ml terpene | 0.01 μg/ml terpene | >0.03 μg/ml terpene | 0.01 μg/ml terpene | 0.94 μg/ml terpene | up to 500 ppm | up to 2500 ppm | 25 ppt | more than 0.01% | 0.08% | – |
| C=CCc1ccc(O)c(OC)c1 [Eugenol] | 0.05 μg/ml terpene | 0.03 μg/ml terpene | 0.05 μg/ml terpene | 0.01 μg/ml terpene | 0.12 μg/ml terpene | – | – | – | – | – | – |
| CC(C)=CCC/C(C)=C/CO [Geraniol] | 0.06 μg/ml terpene | 0.03 μg/ml terpene | >0.03 μg/ml terpene | 0.02 μg/ml terpene | 0.47 μg/ml terpene | – | – | – | – | – | 2 mg/L |
